Results: patent publication US20120156670A1, “IN VITRO […]-CULTURE MODELS” (ARIZONA STATE UNIVERSITY, priority 2010, published 2012)

What was measured:
[1] = system: endocervical model co-culture; test: Bioplex cytokine production in co-culture supernatants, endocervical model; format: cell-based, human; details: FIG. 4
Protocol: Vaginal- and endocervix-cell bearing microcarriers were collected, washed, and re-suspended in 30 mL of KSFM complete medium (Invitrogen, with EGF and BPE), CaCl, and Primocin (InvivoGen). They were then placed on a shaker in polystyrene bottles with vented caps in an incubator (5% CO2, 37° C.) to mimic the circular agitation of the RWV bioreactor. The two types of cell-bearing microcarriers were primed using E. coli as the antigen to mimic an in vivo infection of the female reproductive mucosa through the following steps after a day of culture in the incubator. The E. coli was heat-inactivated and the resulting bioparticles were added at a concentration of 1×10^6/mL to the shaker bottles. E. coli bioparticles alone and no-treatment conditions served as positive and baseline controls, respectively.
The effect of the microbicide nonoxynol-9 (N-9) on antigen priming was studied in experiments by mimicking in vivo microbicidal exposure through the use of Conceptrol®, leading to tissue damage, followed by bacterial infection. Over-the-counter, N-9-containing Conceptrol® was diluted to 20 μg/mL. The concentration of Conceptrol® was chosen to limit massive cell death due to presence of N-9 and reported findings of weakened membrane integrity in the presence of this surfactant microbicide (Dayal, 2003). […]

vaginal epithelial cells = details: background statement; cited from earlier work
[2] = system: dendritic cells in endocervical model co-culture; test: MIMIC co-culture of primed endocervical epithelial microcarriers with PTE module: dendritic cell recovery; format: cell-based, human; details: FIG. 2
Description: (§1) Our experimental design of the MIMIC® co-culture of RWV bioreactor-grown epithelial tissue from selected female reproductive tract tested the efficacy of the differentiated epithelia to pick up and present antigen (FIG. 1). RWV-cultured female reproductive microcarriers of differentiated vaginal and endocervical mucosa were exposed to microbicide/spermicide and bacterial antigen and then introduced to the APC-containing PTE module to study the innate immune responses to Nonoxynol-9 and E. coli bioparticulate treatments.
(§2) Approximately 3.5-week cultured vaginal tissue aggregates and endocervical tissue aggregates were used to mimic the local mucosal tissue of the female reproductive vaginal and endocervical regions. Cell-bearing microcarrier beads were prepared as follows. Collagen-coated Cytodex beads (Sigma) composed of dextran and having an average size of ˜60-87 microns were prepared for cell attachment by soaking in sterile PBS overnight and autoclaved. […]
(§3) Specifically, for the differentiated reproductive epithelial microcarrier co-cultures used here, we generated PTE modules over a period of 2 weeks as follows (see FIG. 1). […] Cell layer integrity and viability were assessed by phase contrast microscopy and/or trypan blue exclusion staining. […]

[3] = system: PTE antigen-presenting cells; test: Total immune cell recovery by trypan blue exclusion and flow cytometry (FIG. 2); format: cell-based, human; details: FIG. 2 legend; model not specified
Protocol: FIG. 2. Total immune cell recovery calculated by trypan blue exclusion and total DCs per treatment were calculated by applying the percentage marker expression from flow cytometry data. […] CD86 and CCR7 expression in the vaginal model also confirm the antigen uptake/presentation responsiveness of the vaginal model.
The quality of immune APCs was determined by quantifying dendritic cell marker expression (HLA-DR, CD14, CD86, CCR7) from the reverse-transmigrated cell fraction of the MIMIC® co-cultures.

[4] = system: dendritic cells in vaginal model co-culture; test: MIMIC co-culture of primed vaginal epithelial microcarriers with PTE module: dendritic cell recovery; format: cell-based, human; details: FIG. 2
Description: as §1, §2, §3

[5] = N-9 and E. coli bioparticles delivered together
[6] = single treatment, N-9 20 μg/mL, E. coli bioparticles 1×10^6/mL, overnight co-culture

Which “cytokine levels versus no treatment microcarrier plus PTE control” value [1] does the source give for nonoxynol-9 [N-9] here?
The value was “above the no treatment microcarrier plus PTE control”.

And the “effect on vaginal epithelial cells in vitro” value (vaginal epithelial cells)?
Its value is “increased inflammation, cell death, and damaged tissue mucosa”.

And the “live dendritic cell recovery” value [2, 5]?
Its value is “overall reduction in live dendritic cell recovery”.

And the “live dendritic cell recovery” value [2, 6]?
Its value is “overall reduction in live dendritic cell recovery”.

What about the “total DC viability” value [3] of the same substance?
Its value is “reduced”.

And the “live dendritic cell recovery” value [4, 5]?
The value was “overall reduction in live dendritic cell recovery”.

What about the “live dendritic cell recovery” value [4, 6] of the same substance?
The value was “overall reduction in live dendritic cell recovery”.
